Experiment [1] deals with Serine/threonine-protein kinase SMG1 (Homo sapiens) (UniProt Q96Q15). Kind of experiment: Inhibition of SMG1 ATP labeling site harbouring SYPYLFKGLEDLHLDER in human A-375 cells at 5 uM by KiNativ Profiling analysis relative to control. Type of experiment: cell-based.
The target of experiment [2] is Tyrosine-protein kinase receptor Tie-1 (Homo sapiens) (UniProt P35590). Kind of experiment: Inhibition of TIE1 (unknown origin) at 1 uM by Ambit Kinomescan binding assay relative to control.
The target in experiment [3] is T1, Serine/threonine-protein kinase Nek9 (Homo sapiens) (UniProt Q8TD19).
T1 sequence (whole entry): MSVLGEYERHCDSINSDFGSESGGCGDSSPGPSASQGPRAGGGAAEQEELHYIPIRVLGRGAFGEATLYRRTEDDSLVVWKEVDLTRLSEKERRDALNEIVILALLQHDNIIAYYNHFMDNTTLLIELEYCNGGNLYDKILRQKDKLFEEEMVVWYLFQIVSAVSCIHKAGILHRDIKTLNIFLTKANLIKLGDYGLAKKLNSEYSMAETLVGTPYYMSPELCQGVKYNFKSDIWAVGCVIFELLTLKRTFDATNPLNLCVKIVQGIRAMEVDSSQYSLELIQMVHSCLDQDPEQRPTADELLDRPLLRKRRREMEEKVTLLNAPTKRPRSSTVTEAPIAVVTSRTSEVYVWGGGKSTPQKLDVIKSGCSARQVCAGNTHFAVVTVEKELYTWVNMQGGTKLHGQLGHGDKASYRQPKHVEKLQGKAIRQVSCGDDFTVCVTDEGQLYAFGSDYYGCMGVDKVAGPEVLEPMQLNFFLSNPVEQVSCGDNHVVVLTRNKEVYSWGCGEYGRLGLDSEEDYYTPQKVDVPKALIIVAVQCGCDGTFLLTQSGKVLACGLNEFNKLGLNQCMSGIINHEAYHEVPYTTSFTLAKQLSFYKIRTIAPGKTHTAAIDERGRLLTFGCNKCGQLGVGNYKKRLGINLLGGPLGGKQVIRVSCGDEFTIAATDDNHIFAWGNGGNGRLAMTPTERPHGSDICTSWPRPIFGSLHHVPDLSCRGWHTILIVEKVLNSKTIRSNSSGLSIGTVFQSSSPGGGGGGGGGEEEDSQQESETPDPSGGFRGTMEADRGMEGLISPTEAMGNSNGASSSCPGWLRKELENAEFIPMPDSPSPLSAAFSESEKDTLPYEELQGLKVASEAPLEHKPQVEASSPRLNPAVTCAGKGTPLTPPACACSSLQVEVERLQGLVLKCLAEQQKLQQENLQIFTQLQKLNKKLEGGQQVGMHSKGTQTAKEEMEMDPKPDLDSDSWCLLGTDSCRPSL
The experiment can be described thus: Inhibition of NEK9 ACT labeling site in human A-375 cells at 5 uM by KiNativ Profiling analysis relative to control. Type of experiment: cell-based.

In experiment [4] the target is Cyclin-dependent kinase 11A (Homo sapiens) (UniProt Q9UQ88). The experiment can be described thus: Inhibition of CDC2L2 (unknown origin) at 1 uM by Ambit Kinomescan binding assay relative to control; values are per cent of control.
Experiment [5] deals with T2, Inhibitor of nuclear factor kappa-B kinase subunit epsilon (Homo sapiens) (UniProt Q14164).
T2 sequence (whole entry): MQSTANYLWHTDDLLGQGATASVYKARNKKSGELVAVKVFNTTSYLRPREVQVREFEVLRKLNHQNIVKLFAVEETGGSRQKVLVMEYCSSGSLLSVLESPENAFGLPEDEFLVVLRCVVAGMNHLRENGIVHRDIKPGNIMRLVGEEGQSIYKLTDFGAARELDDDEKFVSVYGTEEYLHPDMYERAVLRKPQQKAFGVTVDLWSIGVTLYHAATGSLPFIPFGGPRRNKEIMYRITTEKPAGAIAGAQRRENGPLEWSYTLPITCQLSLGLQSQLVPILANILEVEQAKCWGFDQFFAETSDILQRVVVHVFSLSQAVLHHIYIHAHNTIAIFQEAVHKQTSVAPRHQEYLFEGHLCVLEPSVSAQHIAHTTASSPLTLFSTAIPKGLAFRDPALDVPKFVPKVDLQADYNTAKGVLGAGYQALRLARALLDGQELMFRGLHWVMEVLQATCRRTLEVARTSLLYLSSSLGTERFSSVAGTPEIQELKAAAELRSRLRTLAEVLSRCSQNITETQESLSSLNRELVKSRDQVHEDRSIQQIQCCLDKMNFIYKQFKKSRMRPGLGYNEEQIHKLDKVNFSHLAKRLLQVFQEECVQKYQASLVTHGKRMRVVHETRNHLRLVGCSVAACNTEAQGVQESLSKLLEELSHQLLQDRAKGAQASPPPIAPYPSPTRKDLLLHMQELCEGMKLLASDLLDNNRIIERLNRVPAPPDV
The experiment can be described thus: Inhibition of IKK-epsilon (unknown origin) at 10 uM by Ambit Kinomescan binding assay.

For experiment [6], the target named is T3, Phosphorylase b kinase gamma catalytic chain, liver/testis isoform (Homo sapiens) (UniProt P15735).
T3 sequence (whole entry): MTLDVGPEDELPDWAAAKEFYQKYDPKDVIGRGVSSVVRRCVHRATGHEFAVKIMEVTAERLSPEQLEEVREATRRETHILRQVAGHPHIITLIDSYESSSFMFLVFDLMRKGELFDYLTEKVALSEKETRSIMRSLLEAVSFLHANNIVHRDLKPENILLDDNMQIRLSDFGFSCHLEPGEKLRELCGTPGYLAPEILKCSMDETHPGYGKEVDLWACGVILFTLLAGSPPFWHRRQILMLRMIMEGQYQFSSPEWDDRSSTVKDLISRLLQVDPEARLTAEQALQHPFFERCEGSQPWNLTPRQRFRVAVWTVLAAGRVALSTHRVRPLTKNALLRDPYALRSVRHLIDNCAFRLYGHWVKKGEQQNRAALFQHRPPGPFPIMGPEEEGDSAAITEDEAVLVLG
The experiment can be described thus: Inhibition of PHKG2 (unknown origin) at 10 uM by Ambit Kinomescan binding assay.

The target in experiment [7] is Serine/threonine-protein kinase 32C (Homo sapiens) (UniProt Q86UX6). Kind of experiment: Inhibition of YANK3 Lys2 labeling site in human Huh-7 cell lysate at 1 uM by KiNativ Profiling analysis relative to control. In kind it is subcellular.

Structures are written as SMILES. Activity calls are given as the source filed them. The rule behind the calls is not given here.

This is an account of results in ChEMBL document CHEMBL5696442, “Discovery of type II inhibitors of TGFβ-activated kinase 1 (TAK1) and mitogen-activated protein kinase kinase kinase kinase 2 (MAP4K2)” (J Med Chem, 2015).

As a reminder, the inhibition is the drop in the measured response relative to a control, in per cent. The residual activity is what remains of the control signal, in per cent.

Cyclin-dependent kinase 11A (Homo sapiens), sequence (Q9UQ88 whole entry): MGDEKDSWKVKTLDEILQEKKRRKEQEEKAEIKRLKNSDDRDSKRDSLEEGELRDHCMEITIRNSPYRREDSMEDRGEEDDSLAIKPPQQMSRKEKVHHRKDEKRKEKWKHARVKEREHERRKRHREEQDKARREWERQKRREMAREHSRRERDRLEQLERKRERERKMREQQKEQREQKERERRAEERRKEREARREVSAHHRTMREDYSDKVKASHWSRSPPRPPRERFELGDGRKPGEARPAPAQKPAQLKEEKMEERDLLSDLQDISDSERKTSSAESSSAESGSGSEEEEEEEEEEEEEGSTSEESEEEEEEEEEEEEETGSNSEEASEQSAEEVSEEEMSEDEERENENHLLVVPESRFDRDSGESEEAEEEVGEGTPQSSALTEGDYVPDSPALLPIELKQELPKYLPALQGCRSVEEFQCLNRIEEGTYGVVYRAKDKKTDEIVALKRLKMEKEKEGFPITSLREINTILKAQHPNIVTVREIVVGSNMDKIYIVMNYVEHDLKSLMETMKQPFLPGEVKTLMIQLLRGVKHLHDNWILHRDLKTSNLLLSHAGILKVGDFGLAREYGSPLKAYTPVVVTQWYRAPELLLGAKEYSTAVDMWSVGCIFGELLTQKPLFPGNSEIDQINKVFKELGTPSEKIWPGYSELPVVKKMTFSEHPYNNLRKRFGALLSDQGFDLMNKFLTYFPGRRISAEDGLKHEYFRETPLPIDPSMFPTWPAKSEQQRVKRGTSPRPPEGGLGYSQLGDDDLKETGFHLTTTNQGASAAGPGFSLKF
Serine/threonine-protein kinase SMG1 (Homo sapiens), sequence (Q96Q15 whole entry): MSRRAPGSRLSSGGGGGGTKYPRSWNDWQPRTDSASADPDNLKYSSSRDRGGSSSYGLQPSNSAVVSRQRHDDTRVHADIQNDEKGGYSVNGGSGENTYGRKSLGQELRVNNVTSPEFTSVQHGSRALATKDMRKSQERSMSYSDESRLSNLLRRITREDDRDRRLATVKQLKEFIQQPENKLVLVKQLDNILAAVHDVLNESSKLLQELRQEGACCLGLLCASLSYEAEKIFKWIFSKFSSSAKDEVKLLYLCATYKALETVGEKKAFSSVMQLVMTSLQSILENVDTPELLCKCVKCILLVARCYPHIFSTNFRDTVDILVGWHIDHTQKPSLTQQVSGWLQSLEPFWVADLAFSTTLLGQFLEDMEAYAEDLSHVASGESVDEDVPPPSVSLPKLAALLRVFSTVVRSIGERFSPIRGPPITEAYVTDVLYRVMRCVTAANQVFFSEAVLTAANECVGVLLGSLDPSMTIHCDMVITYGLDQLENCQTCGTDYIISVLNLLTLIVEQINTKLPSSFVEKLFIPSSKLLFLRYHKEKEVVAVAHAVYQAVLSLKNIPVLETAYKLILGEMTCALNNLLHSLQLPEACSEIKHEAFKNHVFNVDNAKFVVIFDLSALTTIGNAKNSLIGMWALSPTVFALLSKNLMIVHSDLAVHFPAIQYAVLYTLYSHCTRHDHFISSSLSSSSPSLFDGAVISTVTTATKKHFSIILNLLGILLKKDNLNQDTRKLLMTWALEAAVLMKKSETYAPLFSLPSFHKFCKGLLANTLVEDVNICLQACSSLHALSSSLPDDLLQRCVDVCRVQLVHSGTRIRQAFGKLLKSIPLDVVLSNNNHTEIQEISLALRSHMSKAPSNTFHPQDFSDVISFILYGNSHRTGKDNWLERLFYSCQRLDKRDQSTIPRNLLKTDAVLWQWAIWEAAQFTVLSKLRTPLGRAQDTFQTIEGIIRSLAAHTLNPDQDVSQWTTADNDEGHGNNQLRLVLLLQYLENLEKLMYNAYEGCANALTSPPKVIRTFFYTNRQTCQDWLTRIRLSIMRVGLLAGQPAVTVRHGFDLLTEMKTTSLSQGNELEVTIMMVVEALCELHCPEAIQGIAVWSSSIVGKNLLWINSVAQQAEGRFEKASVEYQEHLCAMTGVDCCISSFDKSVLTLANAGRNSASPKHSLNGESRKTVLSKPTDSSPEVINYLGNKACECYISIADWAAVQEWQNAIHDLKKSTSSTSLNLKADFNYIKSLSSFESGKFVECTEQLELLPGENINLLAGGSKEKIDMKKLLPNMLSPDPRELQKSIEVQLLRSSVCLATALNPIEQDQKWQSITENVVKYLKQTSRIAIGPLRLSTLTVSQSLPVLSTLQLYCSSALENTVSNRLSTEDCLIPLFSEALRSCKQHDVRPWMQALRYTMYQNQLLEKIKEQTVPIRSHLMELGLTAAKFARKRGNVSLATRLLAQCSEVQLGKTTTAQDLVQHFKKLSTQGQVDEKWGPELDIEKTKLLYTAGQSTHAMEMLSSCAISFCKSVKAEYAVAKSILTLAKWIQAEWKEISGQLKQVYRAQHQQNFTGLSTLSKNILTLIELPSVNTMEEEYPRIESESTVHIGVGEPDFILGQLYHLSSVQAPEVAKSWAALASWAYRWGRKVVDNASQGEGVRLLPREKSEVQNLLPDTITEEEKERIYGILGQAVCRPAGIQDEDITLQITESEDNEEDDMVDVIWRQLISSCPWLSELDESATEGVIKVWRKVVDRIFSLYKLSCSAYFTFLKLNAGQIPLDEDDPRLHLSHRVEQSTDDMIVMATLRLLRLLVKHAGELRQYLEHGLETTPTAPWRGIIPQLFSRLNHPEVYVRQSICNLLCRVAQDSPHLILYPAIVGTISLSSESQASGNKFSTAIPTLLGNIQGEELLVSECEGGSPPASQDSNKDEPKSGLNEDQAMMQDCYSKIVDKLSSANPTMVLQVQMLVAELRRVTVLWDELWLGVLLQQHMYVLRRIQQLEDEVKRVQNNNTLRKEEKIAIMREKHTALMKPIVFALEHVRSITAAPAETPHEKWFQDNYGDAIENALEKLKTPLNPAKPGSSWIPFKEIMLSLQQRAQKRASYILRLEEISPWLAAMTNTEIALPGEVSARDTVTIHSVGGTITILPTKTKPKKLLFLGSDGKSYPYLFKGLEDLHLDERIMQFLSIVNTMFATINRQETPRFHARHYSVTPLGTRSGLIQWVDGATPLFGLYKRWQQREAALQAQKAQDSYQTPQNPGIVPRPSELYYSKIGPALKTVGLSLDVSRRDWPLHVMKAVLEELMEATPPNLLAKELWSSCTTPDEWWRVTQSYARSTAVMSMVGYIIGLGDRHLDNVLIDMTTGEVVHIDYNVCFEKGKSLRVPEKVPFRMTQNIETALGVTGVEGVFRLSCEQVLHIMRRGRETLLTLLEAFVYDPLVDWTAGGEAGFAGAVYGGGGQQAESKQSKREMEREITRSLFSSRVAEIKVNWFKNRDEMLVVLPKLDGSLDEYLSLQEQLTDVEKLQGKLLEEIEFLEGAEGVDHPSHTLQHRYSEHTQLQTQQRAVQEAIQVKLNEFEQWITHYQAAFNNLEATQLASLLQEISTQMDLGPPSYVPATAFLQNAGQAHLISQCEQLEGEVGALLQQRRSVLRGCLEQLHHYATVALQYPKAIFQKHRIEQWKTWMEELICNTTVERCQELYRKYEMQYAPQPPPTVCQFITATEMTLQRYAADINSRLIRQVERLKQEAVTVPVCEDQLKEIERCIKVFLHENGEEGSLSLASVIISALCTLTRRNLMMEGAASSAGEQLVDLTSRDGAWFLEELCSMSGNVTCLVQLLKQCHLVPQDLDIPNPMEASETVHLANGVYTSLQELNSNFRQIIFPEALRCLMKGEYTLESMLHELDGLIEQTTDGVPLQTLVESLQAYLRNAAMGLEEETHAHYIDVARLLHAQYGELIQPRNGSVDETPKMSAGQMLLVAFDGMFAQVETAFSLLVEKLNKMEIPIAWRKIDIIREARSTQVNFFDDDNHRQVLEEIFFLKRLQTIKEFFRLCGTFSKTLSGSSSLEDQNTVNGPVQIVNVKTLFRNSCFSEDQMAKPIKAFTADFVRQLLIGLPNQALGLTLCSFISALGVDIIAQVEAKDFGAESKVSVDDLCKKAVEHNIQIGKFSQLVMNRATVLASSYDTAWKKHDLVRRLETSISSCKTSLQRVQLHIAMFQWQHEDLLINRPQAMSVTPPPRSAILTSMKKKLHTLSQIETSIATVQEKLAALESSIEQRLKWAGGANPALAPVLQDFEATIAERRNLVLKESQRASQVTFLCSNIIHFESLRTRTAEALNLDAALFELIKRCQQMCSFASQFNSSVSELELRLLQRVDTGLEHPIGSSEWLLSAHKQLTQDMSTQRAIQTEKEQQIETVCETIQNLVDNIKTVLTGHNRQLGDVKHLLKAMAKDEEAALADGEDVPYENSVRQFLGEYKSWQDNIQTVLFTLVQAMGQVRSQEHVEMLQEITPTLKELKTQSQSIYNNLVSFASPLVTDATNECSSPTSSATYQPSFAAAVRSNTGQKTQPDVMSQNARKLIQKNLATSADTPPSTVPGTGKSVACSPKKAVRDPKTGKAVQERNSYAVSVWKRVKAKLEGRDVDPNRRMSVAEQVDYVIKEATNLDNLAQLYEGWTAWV
Serine/threonine-protein kinase 32C (Homo sapiens), sequence (Q86UX6 whole entry): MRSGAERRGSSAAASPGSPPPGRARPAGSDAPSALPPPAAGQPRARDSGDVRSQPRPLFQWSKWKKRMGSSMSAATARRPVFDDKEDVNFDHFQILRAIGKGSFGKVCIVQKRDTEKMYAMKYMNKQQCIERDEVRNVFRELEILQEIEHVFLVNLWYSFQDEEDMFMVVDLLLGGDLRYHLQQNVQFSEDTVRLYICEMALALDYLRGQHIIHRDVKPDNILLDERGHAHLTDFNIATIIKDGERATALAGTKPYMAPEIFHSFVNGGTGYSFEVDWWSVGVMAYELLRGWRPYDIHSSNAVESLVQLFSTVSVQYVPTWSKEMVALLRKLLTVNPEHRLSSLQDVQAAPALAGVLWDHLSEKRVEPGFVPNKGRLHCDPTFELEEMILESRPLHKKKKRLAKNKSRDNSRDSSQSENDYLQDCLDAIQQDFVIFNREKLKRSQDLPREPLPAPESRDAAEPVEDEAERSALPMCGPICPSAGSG

Take `CCN1CCN(Cc2ccc(NC(=O)c3ccc(C)c(/C=C/c4cnc5[nH]ccc5c4OC)c3)cc2C(F)(F)F)CC1`: the inhibition came to 24.4% in experiment [1], 0.95% in experiment [2] and 14.9% in experiment [3]. The residual activity in experiment [4] stood at 70%.
In the case of `CCN1CCN(Cc2ccc(NC(=O)c3ccc(C)c(Oc4ccnc5[nH]ccc45)c3)cc2C(F)(F)F)CC1`, the inhibition entry in experiment [5] and in experiment [6] was “inactive” in each case.
In the case of `CNc1cc(Oc2cc(C(=O)Nc3cc(N4CCN(C)CC4)cc(C(F)(F)F)c3)ccc2C)ncn1`, the inhibition in experiment [7] was -3.3%.
